Patent US12344610B2, “APOL1 inhibitors and methods of use” (Maze Therapeutics, Inc., priority 2022, dated 2025)

tested on: Trypanosoma brucei Lister 427 VSG221 with APOL1 G0 recombinant protein; assay: APOL1 G0 trypanosome cell rescue assay (Example B5); type: cell-based; conditions: Trypanosoma brucei, 20 h, read-out: APOL1 G0 Trypanosome Rescue EC50, Trypanosoma brucei Lister 427 VSG221 with APOL1 G0 recombinant protein, 20 hours, CellTiter-Glo; geometric mean of at least 2 assay runs; † = single assay run
In short: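 Recombinant APOL1 protein, dispensed from a 2 μg/mL stock, and 250 T. brucei per well were co-incubated with test compound (0.4% DMSO) for 20 h. Viability: CellTiter-Glo luminescence.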

First: CS(=O)(=O)c1ccc(OCCN2CCC3(CC2)C(=O)Nc2ccc(C#N)cc23)cc1C(F)(F)F [Compound 107, 1′-{2-[4-methanesulfonyl-3-(trifluoromethyl)phenoxy]ethyl}-2-oxo-1,2-dihydrospiro[indole-3,4′-piperidine]-5-carbonitrile]
Second: CS(=O)(=O)c1ccc(OCCN2CCC3(CC2)C(=O)Nc2ccc(Cl)cc23)cc1C(F)(F)F [Compound 108, 5-chloro-1′-{2-[4-methanesulfonyl-3-(trifluoromethyl)phenoxy]ethyl}-1,2-dihydrospiro[indole-3,4′-piperidin]-2-one]
The EC50 of the first is 2.5-fold higher: 57.2 nM for the first, 23.3 nM for the second.

Compared with `CS(=O)(=O)C1(c2ccc(OCCN3CCC4(CC3)C(=O)Nc3ccc(C#N)cc34)cc2)COC1` [Compound 109, 1′-{2-[4-(3-methanesulfonyloxetan-3-yl)phenoxy]ethyl}-2-oxo-1,2-dihydrospiro[indole-3,4′-piperidine]-5-carbonitrile], `N#Cc1ccc2c(c1)C1(CCN(CCOc3ccc(S(=O)(=O)C(F)F)cc3)CC1)C(=O)N2` [Compound 113, 1′-[2-(4-difluoromethanesulfonylphenoxy)ethyl]-2-oxo-1,2-dihydrospiro[indole-3,4′-piperidine]-5-carbonitrile] is 2.6-fold lower in EC50: 320 nM for the first, 124 nM for the second.

First: Cc1cc(OCCN2CCC3(CC2)C(=O)Nc2ccc(Cl)cc23)ccc1S(C)(=O)=O [Compound 110, 5-chloro-1′-[2-(4-methanesulfonyl-3-methylphenoxy)ethyl]-1,2-dihydrospiro[indole-3,4′-piperidin]-2-one]
Second: Cc1cc(OCCN2CCC3(CC2)C(=O)Nc2ccc(C#N)cc23)ccc1S(C)(=O)=O [Compound 111, 1′-[2-(4-methanesulfonyl-3-methylphenoxy)ethyl]-2-oxo-1,2-dihydrospiro[indole-3,4′-piperidine]-5-carbonitrile]
The EC50 of the first is 3.9-fold lower: 71.4 nM for the first, 282 nM for the second. The first is the more potent here.

`O=C1Nc2ccc(Cl)cc2C12CCN(CCOc1ccc(S(=O)(=O)C(F)F)cc1)CC2` [Compound 112, 5-chloro-1′-[2-(4-difluoromethanesulfonylphenoxy)ethyl]-1,2-dihydrospiro[indole-3,4′-piperidin]-2-one] and `CN(c1c(F)cc(OCCN2CCC3(CC2)C(=O)Nc2ccc(Cl)cc23)cc1F)S(C)(=O)=O` [Compound 127, N-[4-(2-{5-chloro-2-oxo-1,2-dihydrospiro[indole-3,4′-piperidin]-1′-yl}ethoxy)-2,6-difluorophenyl]-N-methylmethanesulfonamide] are within 1.5-fold of each other in EC50: 58.2 nM for the first, 64.9 nM for the second.

`O=C1CCc2cc(OCCN3CCC4(CC3)C(=O)Nc3ccc(Cl)cc34)ccc2N1[C@H]1C[C@@H](O)C1` [Compound 114, 5-chloro-1′-[2-({2-oxo-1-[(cis)-3-hydroxycyclobutyl]-1,2,3,4-tetrahydroquinolin-6-yl}oxy)ethyl]-1,2-dihydrospiro[indole-3,4′-piperidin]-2-one] and `Cn1c(=O)oc2cc(OCCN3CCC4(CC3)C(=O)Nc3ccc(Cl)cc34)ccc21` [Compound 131, 5-chloro-1′-{2-[(3-methyl-2-oxo-2,3-dihydro-1,3-benzoxazol-6-yl)oxy]ethyl}-1,2-dihydrospiro[indole-3,4′-piperidin]-2-one] are within 1.5-fold of each other in EC50: 108 nM for the first, 132 nM for the second.

First: CN(c1c(F)cc(OCCN2CCC3(CC2)C(=O)Nc2ccc(C#N)cc23)cc1F)S(C)(=O)=O [Compound 128, N-[4-(2-{5-cyano-2-oxo-1,2-dihydrospiro[indole-3,4′-piperidin]-1′-yl}ethoxy)-2,6-difluorophenyl]-N-methylmethanesulfonamide]
Second: Cc1cc(OCCN2CCC3(CC2)C(=O)Nc2ccc(Cl)cc23)cc(C)c1S(C)(=O)=O [Compound 129, 5-chloro-1′-[2-(4-methanesulfonyl-3,5-dimethylphenoxy)ethyl]-1,2-dihydrospiro[indole-3,4′-piperidin]-2-one]
The EC50 of the first is 4.1-fold higher: 269 nM for the first, 65.2 nM for the second. The second is the more potent here.

With `Cn1c(=O)oc2cc(OCCN3CCC4(CC3)C(=O)Nc3ccc(C#N)cc34)ccc21` [Compound 132, 1′-{2-[(3-methyl-2-oxo-2,3-dihydro-1,3-benzoxazol-6-yl)oxy]ethyl}-2-oxo-1,2-dihydrospiro[indole-3,4′-piperidine]-5-carbonitrile] the EC50 was 525 nM.
